In patent publication US20240197800A1, “Aristotelia chilensis EXTRACTS FOR TREATING FUNGAL INFECTIONS” (Phytonet Doo Beograd-rakovica, priority 2021, published 2024):

Key:
[1] = system: candida, three clinical isolates; assay: inhibition of candida filamentation in vitro, checkerboard assay with nystatin in RPMI medium; type: cell-based, Candida albicans
Protocol: The inhibitory effect of Maqui berry extract and nystatin, one of the most commonly applied topical antifungal drugs, on candida filamentation was investigated in vitro in three clinical isolates in RPMI medium in a checkerboard assay. The extract was tested in a concentration range of 0.125; 0.25 and 0.5 mg/mL (31.25; 62.5 and 125 μg/mL delphinidin, respectively 43.75; 87.5 and 175 μg/mL total anthocyanins), and nystatin in the concentration range 2 μg/mL (MIK), 1 μg/mL (½MIK) and 0.5 μg/mL (¼MIK).

Candida albicans SC5314 = assay: zebrafish embryo hindbrain infection model, inhibition of candida filamentation in vivo; design: species or system Candida albicans (host: zebrafish embryo)
Protocol: The model of the brain infection (hindbrain) of the zebrafish embryo with Candida albicans, described in the literature, is an animal model of the infection system which due to the optical transparency of the embryo body provides the ability to examine and monitor the effect of applied therapeutics on replication, filamentation and fungi dissemination through the body of the zebrafish embryo as a host. The embryos at the developmental stage of 32-34 hpf were injected into the brain through an optic vesicle with 50-75 Candida albicans SC5314 cells, previously labeled with green fluorescent dye. Candida inoculum was prepared in 5% polyvinylpyrrolidone (PVP) solution. Two hours after the microinjection of candida, the infected embryos were treated with Maqui berry extract at a concentration of 0.0625 mg/mL, 0.125 mg/mL and 0.25 mg/mL, as well as nystatin at a concentration of 1 μg/mL (½MIK) and 0.5 μg/mL (¼MIK). Beside individual treatments, the infected embryos were exposed to a combined treatment (nystatin and extract together), in combinations of all mentioned doses. The embryos injected with only 5% PVP represented the control group. After the applied treatments, the zebrafish embryos were reared for the next 4 days at a temperature of 31° C. and monitored daily for survival as well as filamentation and dissemination of candida using fluorescence microscopy.

[2] = nystatin alone, MIK dose (2 μg/mL)

Question: How did the MIK ([1]; clinical isolates, RPMI medium) turn out when `C[C@@H]1[C@H](O)[C@@H](C)/C=C/C=C/CC/C=C/C=C/C=C/C=C/C(O[C@H]2O[C@H](C)[C@@H](O)[C@H](N)[C@@H]2O)CC2O[C@](O)(CC(O)C(O)CCC(O)CC(O)CC(O)CC(=O)O[C@H]1C)CC(O)C2C(=O)O` (stereo partly drawn) [nystatin] was run?
Answer: Its MIK is 2 µg/mL.

Question: And the filamentation [1, 2]?
Answer: Its filamentation is “no filamentation”.

Question: What about the growth of isolates [1, 2] of the same compound?
Answer: Its growth of isolates is “reduced growth”.

Question: And the growth and filamentation ([1]; nystatin alone, ½MIK (1 μg/mL) and ¼MIK (0.5 μg/mL) doses)?
Answer: Its growth and filamentation is “grew and filamented”.

Question: And the filamentation in vivo (Candida albicans SC5314; both nystatin concentrations (0.5 and 1 μg/mL))?
Answer: The filamentation in vivo was “filamentation was present”.

Question: And the “infection (candidiasis) compared to untreated embryos” value (Candida albicans SC5314; nystatin 0.5 μg/mL (¼MIK) and 1 μg/mL (½MIK))?
Answer: The value was “significantly reduced”.
